Assay results published in ChEMBL document CHEMBL1134805, “Cyclic imides as potent and selective alpha-1A adrenergic receptor antagonists” (Bioorg Med Chem Lett, 2001).
pKi: −log10 of the molar value.

What was measured:
[1] = Bioavailability in rat (Sprague-Dawley) (male) (dose 1 mg/kg i.v. and 3 mg/kg p.o.) measured from 0.3 to 6 hr; format: ADME, organism-based; details: in vivo, po
[2] = target: T1, Alpha-1A adrenergic receptor (Homo sapiens, UniProt P35348); test: In vitro binding affinity towards cloned human Alpha-1A adrenergic receptor
T1 sequence (P35348 whole entry): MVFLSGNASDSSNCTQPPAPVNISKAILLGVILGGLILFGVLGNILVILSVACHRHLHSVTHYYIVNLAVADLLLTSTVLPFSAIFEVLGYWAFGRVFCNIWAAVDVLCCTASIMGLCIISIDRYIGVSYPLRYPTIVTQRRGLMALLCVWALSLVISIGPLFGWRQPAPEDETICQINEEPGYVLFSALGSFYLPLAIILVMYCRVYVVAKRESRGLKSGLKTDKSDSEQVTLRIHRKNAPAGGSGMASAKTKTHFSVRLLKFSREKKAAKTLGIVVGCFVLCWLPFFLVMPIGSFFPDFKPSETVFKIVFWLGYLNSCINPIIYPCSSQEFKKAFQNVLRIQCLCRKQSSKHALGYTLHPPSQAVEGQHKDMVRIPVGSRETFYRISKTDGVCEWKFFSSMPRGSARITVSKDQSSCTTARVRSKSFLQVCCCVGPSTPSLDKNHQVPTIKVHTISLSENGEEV

[3] = Half-life in dogs; format: ADME, organism-based, Canis lupus familiaris; details: dog, in vivo
[4] = target: T2, Alpha-1B adrenergic receptor (Homo sapiens, UniProt P35368); test: In vitro binding affinity towards cloned human Alpha-1B adrenergic receptor
T2 sequence (P35368 whole entry): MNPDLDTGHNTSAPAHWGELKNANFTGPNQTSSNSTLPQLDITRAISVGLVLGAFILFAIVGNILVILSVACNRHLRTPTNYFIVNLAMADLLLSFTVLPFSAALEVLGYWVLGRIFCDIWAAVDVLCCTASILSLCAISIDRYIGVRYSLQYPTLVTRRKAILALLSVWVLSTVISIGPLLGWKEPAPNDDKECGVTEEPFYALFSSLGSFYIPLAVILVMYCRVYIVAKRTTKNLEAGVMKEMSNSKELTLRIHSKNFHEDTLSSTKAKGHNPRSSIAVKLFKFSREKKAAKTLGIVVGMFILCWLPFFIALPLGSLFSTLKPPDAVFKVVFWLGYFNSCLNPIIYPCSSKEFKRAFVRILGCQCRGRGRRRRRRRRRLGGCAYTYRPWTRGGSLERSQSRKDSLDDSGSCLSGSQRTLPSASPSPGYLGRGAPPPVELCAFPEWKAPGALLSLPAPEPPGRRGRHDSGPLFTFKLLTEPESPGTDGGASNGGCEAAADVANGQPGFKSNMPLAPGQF

[5] = Bioavailability in dog (Beagle) (male) (dose 3 mg/kg i.v. and 10 mg/kg p.o.) measured from 1 to 24 hr; format: ADME, organism-based, Canis lupus familiaris; details: in vivo, po
[6] = Half-life in rats; format: ADME, organism-based; details: rat, in vivo
[7] = target: T3, Alpha-1D adrenergic receptor (Homo sapiens, UniProt P25100); test: In vitro binding affinity towards cloned human Alpha-1D adrenergic receptor
T3 sequence (P25100 whole entry): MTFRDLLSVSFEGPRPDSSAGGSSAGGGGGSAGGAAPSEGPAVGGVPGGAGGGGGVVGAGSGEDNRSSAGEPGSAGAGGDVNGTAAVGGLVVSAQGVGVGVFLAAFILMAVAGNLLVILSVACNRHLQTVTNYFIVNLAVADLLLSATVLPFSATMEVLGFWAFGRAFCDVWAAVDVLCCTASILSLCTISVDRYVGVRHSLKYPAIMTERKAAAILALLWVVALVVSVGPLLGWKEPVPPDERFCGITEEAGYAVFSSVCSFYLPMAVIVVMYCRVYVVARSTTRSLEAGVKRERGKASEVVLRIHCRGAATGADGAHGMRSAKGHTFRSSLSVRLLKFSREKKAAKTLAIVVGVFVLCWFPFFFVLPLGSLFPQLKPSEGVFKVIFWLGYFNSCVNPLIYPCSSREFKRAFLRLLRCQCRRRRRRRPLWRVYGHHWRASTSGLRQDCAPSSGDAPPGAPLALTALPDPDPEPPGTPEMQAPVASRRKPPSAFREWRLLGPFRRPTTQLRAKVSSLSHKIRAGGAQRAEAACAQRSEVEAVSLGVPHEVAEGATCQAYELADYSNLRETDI

bioavailability [1] [%] | pKi [2] | half-life [3] [h] | pKi [4] | bioavailability [5] [%] | half-life [6] [h] | pKi [7] | Structure (SMILES)
18 | 8.77 | 1.3 | 5.72 | 8 | 2.5 | 5.82 | Cc1ccc(C2(c3ccc(C)cc3)CC(=O)N(CCCN3CCC(C#N)(c4ccccc4C)CC3)C2=O)cc1
 | 7.11 |  | < 5.70 |  |  | < 5.30 | Cc1ccc(C2(c3ccc(C)cc3)OC(=O)N(CCCN3CCC(C#N)(c4ccccc4C)CC3)C2=O)cc1
19 | 9.32 | 1.7 | 7.01 | 11 | 0.66 | 6.66 | Cc1ccc(C2(c3ccc(C)cc3)CC(=O)N(CCCN3CCC(C#N)(c4ccccc4Cl)CC3)C2=O)cc1
 | 8.01 |  | 5.82 |  |  | 5.39 | Cc1ccc(C2(c3ccc(C)cc3)CC(=O)N(CC(O)CN3CCC(C#N)(c4ccccc4C)CC3)C2=O)cc1 (centres undefined)

The next lines start with the compound.

Structure (SMILES) | bioavailability [1] [%] | pKi [2] | half-life [3] [h] | pKi [4] | bioavailability [5] [%] | half-life [6] [h] | pKi [7]
COC(=O)C1(c2ccccc2)CCN(CCCNC(=O)C(c2ccc(C)cc2)c2ccc(C)cc2)CC1 |  | 7.77 |  | 6.77 |  |  | 6.01
Cc1ccc(C(O)(C(=O)NCCCN2CCC(C#N)(c3ccccc3C)CC2)c2ccc(C)cc2)cc1 | < 1 | 8.70 |  | 6.24 |  | 1.3 | 5.82
Cc1ccc(C2(c3ccc(C)cc3)CC(=S)N(CCCN3CCC(C#N)(c4ccccc4Cl)CC3)C2=O)cc1 |  | 6.66 |  | < 5.70 |  |  | < 5.30
Cc1ccc(C(O)(C(=O)NCCCN2CCC(C#N)(c3ccccc3)CC2)c2ccc(C)cc2)cc1 |  | 8.24 |  | 5.74 |  |  | 5.32
